# No end group written: not given here.
# Experiments:
# [1] = test system: dispersed guinea pig pancreatic acinar cells; assay: Amylase-release assay with dispersed pancreatic acinar cells; assay type: cell-based; details: ED50 for the human VIP standard divided by ED50 for the analog; 30 minutes at 37° C.
# Experimental: The bioactivity of analogs of Example I, chicken VIP, guinea pig VIP, and human VIP without amidation at the carboxy-terminus was determined, relative to that of naturally occurring human VIP, by an amylase-release assay employing dispersed guinea pig pancreatic acinar cells. The assay was essentially that described by Peikin et al., Am. J. Physiol. 235, E743-E749 (1978).
# For the assays conducted each day, dispersed acinar cells, free of debris, were freshly prepared from a pancreas of a male or female guinea pig (120-150 gm), following generally the method described by Peikin et al., supra.
# The procedure employed a "standard incubation medium," which consisted of 95 mM NaCl; 6 mM KCl; 2.5 mM NaH2 PO4; 5 mM each of sodium pyruvate, sodium fumarate and sodium glutamate; 0.5 mM CaCl2, 1.0 mM MgCl2, 11.5 mM glucose, 0.05 mg/ml glutamine; amino acids and vitamius from Eagle's Minimum Essential Medium at their concentration in such Eagle's Medium; 25 mM HEPES; 0.08 mg/ml soybean trypsin inhibitor (Calbiochem); pH 7.4.
# The animal was sacrificed, its pancreas removed and the pancreas trimmed of fat, blood vessels, duodenum and the like. With a syringe with a 25 gauge needle, 10.0 ml of collagenase solution (standard incubation medium with 0.2 mg/ml C. histolyticum collagenase and 2 mg/ml BSA (Fraction V) (both from Calbiochem, San Diego, California, U.S.A.)) was injected into the pancreas, which was then transferred to a 25 ml flask, gassed with 100% O2, and shaken on a shaker as rapidly as possible for 10 minutes at 37° C. Then the liquid was poured off and replaced with another 5.0 ml of collagenase solution, and the gassing with 100% O2 and shaking for 10 minutes at 37° C. were repeated. The replacement of liquid, gassing with 100% O2 and shaking at 37° C. were again repeated. If, by visual inspection, digestion appeared to be incomplete, vigorous shaking by hand with 1 minute incubation at 37° C. were repeated until digestion was complete. The mass was then broken up further by passing chunks through a large bore serological pipette, and then a small bore pipette. Very large chunks, fur and debris were removed with a long Pasteur pipette. Then half of the resulting acinar cell suspension was placed into each of two 15 ml clear, polystyrene tubes, each containing 4.0 ml of 4.0% BSA solution (standard incubation medium with 40 mg/ml BSA (Fraction V) and 2 mM, rather than 0.5 mM, CaCl2). Both combinations were mixed thoroughly and debris was again removed. The resulting suspensions were spun at medium speed in a tabletop centrifuge for 30 seconds, the supernatants were discarded, and the pellets were resuspended in 4.0 ml of 4.0% BSA and 4.0 ml of 0.2% BSA solution (standard suspension medium with 2 mg/ml BSA (Fraction V) and 2 mM, rather than 0.5 mM, CaCl2), the suspension was again cleaned of debris, and then spun as above with the tabletop centrifuge. The supernatants were discarded and the pellets again washed with 4.0 ml of 4% BSA solution and repelleted as above with the tabletop centrifuge. Again, the supernatants were discarded and the pellets were carried into one 250 ml Erlenmeyer flask, to which 50.0 ml of 1% BSA solution (standard incubation medium with 10 mg/ml BSA (Fraction V) and 5 mM theophylline) had been added. When the cells were not used immediately, the suspension was gassed with 100% O2. The preparation was acceptable for use in an assay only if the cells were fine and well dispersed and there was nothing visible in the preparation other than cells. […]
# [2] = Stability against proteolytic degradation in crude rat-lung homogenate; details: 10^-5 M peptide in crude rat lung homogenate, 37° C., intact peptide by HPLC
# Experimental: The stability of naturally occurring, human VIP and various analogs described in Example I was assessed by determining their resistance to degradation when incubated with a crude rat-lung homogenate.
# For the assay, the lungs were taken from a female Sprague-Dawley rat and were perfused with ice-cold phosphate-buffered saline, as described in Example II. The whitened lungs were polytroned and then homogenized in Degradation Assay Buffer (25 mM Tris, 5 mM MgCl2, pH 7.4), and the homogenate was filtered through cheesecloth. The filtrate was then diluted to a final volume of 500 ml with Degradation Assay Buffer, to yield the crude lung homogenate.
# Resistance to degradation was measured by determining the half-life of the human VIP or analog in the crude lung homogenate. To determine these half-lives, the human VIP or analog was added to 1 ml of the crude homogenate to a concentration of 10^-5 M, and the mixture was incubated at 37° C. After incubation for the desired time period, the sample was placed in a 100° C. bath and boiled for 5 minutes, and then acidified with glacial acetic acid (10% final volume) and, finally, cooled rapidly by being placed on dry ice. The sample was then microfuged at 4° C. for 15 minutes, and the supernatant analysized for peptide content by HPLC.
# [3] = biological target: VIP receptors in rat lung membrane
# Experimental: Radioreceptor assays were carried out to determine the affinities of analogs of Example I for VIP receptors in rat lung membrane, following Leroux et al., Endocrinology 114, 1506-1512 (1984).
# The following buffers were prepared:
# Buffer A: 250 mM sucrose, 5 mM MgCl2, 25 mM Tris, pH 7.4
# Buffer B: 5 mM MgCl2, 25 mM Tris, pH 7.4
# Buffer C: 25 mM Tris, 5 mM MgCl2, 1 mg/ml bacitracin, 2 mg/ml bovine serum albumin ("BSA"), pH 7.4
# Phenylmethylsulfonyl fluoride ("PMSF") was added, to a final concentration of 1 mM, to the buffers immediately prior to their use.
# ^125 I-labeled, human VIP (^125 I-VIP) was purchased from New England Nuclear (Boston, Mass., U.S.A.). The peptide as purchased was diluted to 10^-5 Ci/ml with Buffer C and stored in 25 ul or 50 ul aliquots at -20° C., which were subsequently diluted with Buffer C, as described below, for the assays.
# Rat lung membrane was prepared for the assay as follows, following Leroux et al., supra: Five female Sprague-Dawley rats (200-250 g) were sacrificed and their hearts perfused with iced, phosphate-buffered saline (PBS) through the right atrium (approximately 30 ml PBS per rat). The lungs, which were whitened, were then removed and placed directly in iced PBS and any blood was rinsed from the tissue. The lung tissue was then transferred to a weighing device on ice; blood vessels, fat and the like were removed from the tissue; and the tissue was blotted and weighed. The lung tissue was then transferred to a 50 cm^3 Falcon tube with 2 ml of Buffer A per g lung tissue (approximately 25 ml Buffer A) and homogenized at 4° C. 1 minute in a polytron (Brinkmann Instruments Co., Westbury, N.Y., U.S.A.) and then with a glass/teflon homogenizer (approximately 5-6 strokes). The homogenate was filtered through two layers of cheesecloth, and the filtrate was then transferred to tubes for centrifugation at 30,000×g for 10 minutes. The pellets were then resuspended in approximately 70 ml of Buffer B using a glass/teflon homogenizer and the resulting suspensions were again centrifuged at 30,000×g for ten minutes. The resulting pellets were resuspended in 50 ml of Buffer B using a glass/teflon homogenizer. The suspension was divided into 1.0 ml aliquots in microfuge tubes, which were quickly frozen and stored on dry ice until use.
# When used, an aliquot of suspension was thawed and microfuged at 4° C. for several minutes to pellet suspended material. The supernatant was carefully removed and the pellet resuspended in 1 ml of Buffer C.
# Prior to use of a VIP receptor-containing suspension in an assay, the protein concentration was adjusted to 2 mg/ml by addition of Buffer C. Then 100 ul of this suspension (2 mg/ml) was combined with 100 ul of solution of ^125 I-VIP, 100 ul of solution of the VIP or analog thereof being assayed and 200 ul of Buffer C; consequently, the concentration of protein from the rat lung VIP receptor preparations used in the assays was 0.4 mg/ml.
# In the radioreceptor assays, the ability of analog to displace ^125 I-VIP from binding in the receptor preparation was measured by a standard procedure. For each analog, and naturally occurring human VIP as standard, a series of solutions, of 500 ul total volume in Buffer C, containing various concentrations of analog or standard (between about 10^-11 M and 10^-6 M), ^125 I-VIP at 100 cpm/ul (about 2×10^-10 M), and receptor preparation (0.4 mg protein/ml) were assayed.
Molecule,Potency (Amylase Release Assay) [1],HALF-LIFE [2],"IC50 ([3]; read-out: concentration required to displace half of the 125I-VIP / occupy half the receptor sites, rat lung membrane receptor preparation at 0.4 mg protein/ml)",RELATIVE IC50 [3]
"CC[C@H](C)[C@H](NC(=O)[C@H](CO)NC(=O)[C@H](CC(N)=O)NC(=O)[C@H](CC(C)C)NC(=O)[C@H](Cc1ccc(O)cc1)NC(=O)[C@H](CCCCN)NC(=O)[C@H](CCCCN)NC(=O)[C@@H](NC(=O)[C@H](C)NC(=O)[C@H](CCSC)NC(=O)[C@H](CCC(N)=O)NC(=O)[C@H](CCCCN)NC(=O)[C@H](CCCNC(=N)N)NC(=O)[C@H](CC(C)C)NC(=O)[C@H](CCCNC(=N)N)NC(=O)[C@@H](NC(=O)[C@H](Cc1ccc(O)cc1)NC(=O)[C@H](CC(N)=O)NC(=O)[C@H](CC(=O)O)NC(=O)[C@@H](NC(=O)[C@H](Cc1ccccc1)NC(=O)[C@@H](NC(=O)[C@H](C)NC(=O)[C@H](CC(=O)O)NC(=O)[C@H](CO)NC(=O)[C@@H](N)Cc1c[nH]cn1)C(C)C)[C@@H](C)O)[C@@H](C)O)C(C)C)C(=O)N[C@@H](CC(C)C)C(=O)N[C@@H](CC(N)=O)C(N)=O [Human VIP, HSDAVFTDNYTRLRKQMAVKKYLNSILN-NH2, reference compound]",1.0,16 min,~0.5 nM,–
CC[C@H](C)[C@H](NC(=O)[C@H](CO)NC(=O)[C@H](CC(N)=O)NC(=O)[C@H](CC(C)C)NC(=O)[C@H](Cc1ccc(O)cc1)NC(=O)[C@H](CCCCN)NC(=O)[C@H](CCCCN)NC(=O)[C@@H](NC(=O)[C@H](C)NC(=O)[C@H](CCSC)NC(=O)[C@H](CCC(N)=O)NC(=O)[C@H](CCCCN)NC(=O)[C@H](CCCNC(=N)N)NC(=O)[C@H](CC(C)C)NC(=O)[C@H](CCCNC(=N)N)NC(=O)[C@@H](NC(=O)[C@H](Cc1ccc(O)cc1)NC(=O)[C@H](CC(N)=O)NC(=O)[C@H](CC(=O)O)NC(=O)[C@@H](NC(=O)[C@H](Cc1ccccc1)NC(=O)[C@@H](NC(=O)[C@H](C)NC(=O)[C@H](CC(=O)O)NC(=O)[C@H](CO)NC(=O)[C@@H](N)Cc1c[nH]cn1)C(C)C)[C@@H](C)O)[C@@H](C)O)C(C)C)C(=O)N[C@@H](CC(C)C)C(=O)N[C@@H](CC(N)=O)C(=O)O [reference compound],0.4,–,–,–
"H-HSDAVFSDSYSRFRRSMAVRRYLSNVLT-NH2 [Analog V, HSDAVFSDSYSRFRRSMAVRRYLSNVLT-(NH2)i]",0.2,2.5 min,–,4.2
"HSDALFTDTYTRLRKQMAMKKYLNSVLN-NH2 [Guinea Pig VIP, reference compound]",0.05,–,–,20
"HSDAVFTDNYSRFRKQMAVKKYLNSVLT-NH2 [Chicken VIP, reference compound]",0.5,–,–,1.4
"HSDAVFTDNYSRFRKQMAVRRFVNSVLT-NH2 [Analog IX, HSDAVFTDNYSRFRKQMAVRRFVNSVLT-(NH2)i]",7 × 10^-4,–,–,175
"HSDAVFTDNYSRYRRQMAVKKYLNSVLT-NH2 [Analog VII, HSDAVFTDNYSRYRRQMAVKKYLNSVLT-(NH2)i]",1.0 × 10^-3,–,–,86
"HSDAVYSDSFRSYRSRVALSRFVRNVVT-NH2 [Analog III, HSDAVYSDSFRSYRSRVALSRFVRNVVT-(NH2)i]",1.0 × 10^-3,4 min,–,2350
"HSDAVYSDSFSRYRRSVALRRFVSNVVT-NH2 [Analog I, HSDAVYSDSFSRYRRSVALRRFVSNVVT-(NH2)i]",5 × 10^-4,4 min,–,140
"HSDAVYSDSFSRYRSRVALSRFVRNVVT-NH2 [Analog II, HSDAVYSDSFSRYRSRVALSRFVRNVVT-(NH2)i]",1 × 10^-4,7.5 min,–,550
"HSDAVYTDNFSRYRKQVALKKFVNSVVT-NH2 [Analog IV, HSDAVYTDNFSRYRKQVALKKFVNSVVT-(NH2)i]",4.4 × 10^-3,5 min,–,1040
